According to patent US20030022906A1, “Use of pde v inhibitors” (priority 2000, published 2003):

Key:
[1] = test system: spontaneously hypertensive rats; experiment: Nitrate interaction in spontaneously hypertensive rats; assay type: in vivo, rat; conditions: i.v. cumulative 0.1, 0.3, 1, 3 or 10 mg/kg; infusion of isosorbitol dinitrate 100 μg/kg of body weight/hour
Experimental: Nitrate Interaction in Spontaneously Hypertensive Rats
Method: surgical instrumentation and measurement of blood pressure and heart rate after intravenous cumulative administration of either EMD 221829 or sildenafil (0.1, 0.3, 1, 3 or 10 mg/kg of body weight) with simultaneous infusion of isosorbitol dinitrate (100 μg/kg of body weight/hour).

[2] = test system: anaesthetized dogs with open thorax; experiment: Haemodynamics in anaesthetized dogs with open thorax; assay type: in vivo, dog
Source text: (§1) All dose amounts are i.d. (intraduodenal), unless stated otherwise.

[3] = test system: anaesthetized dogs with closed thorax; experiment: Blood pressure and heart rate measured at the same time in anaesthetized dogs with closed thorax; assay type: in vivo, dog; conditions: 1 mg/kg i.d.
Experimental: as §1
(§2) Measurements of Erectile Function in Anaesthetized Dogs with Closed Thorax
At the same time, the blood pressure and heart rate were measured.

[4] = test system: anaesthetized dogs with closed thorax; experiment: Erectile function in anaesthetized dogs with closed thorax (pressure in corpus cavernosum rigidum); assay type: in vivo, dog; conditions: 1 mg of substance/1 kg of body weight i.d.; erection initiated by stimulation of the nervus pelvinus
Experimental: as §1, §2
Erections of various extent were initiated by stimulation variation of the nervus pelvinus. The pressure in the corpus cavernosum rigidum [CCR] was measured.

[5] = test system: spontaneously hypertensive rats; experiment: Telemetric measurements of blood pressure and heart rate over 24 hours in spontaneously hypertensive rats; assay type: in vivo, rat; conditions: 3, 10 and 30 mg/kg p.o.; telemetry over 24 hours
Experimental: Telemetric Measurements of Blood Pressure and Heart Rate Over 24 Hours in Spontaneously Hypertensive Rats
Measurements of 3, 10 and 30 mg of substance/1 kg of body weight/p.o.

[6] = test system: anaesthetized dogs with open thorax; experiment: Nitrate interaction in anaesthetized dogs with open thorax (i.v. infusion of isosorbitol dinitrate); assay type: in vivo, dog; conditions: i.d., permanent i.v. infusion of isosorbitol dinitrate 50 μg/kg of body weight/hour
Experimental: Investigations of Nitrate Interaction of EMD 221829 and Sildenafil
The model and administration are as in B, but both test substances are administered with simultaneous permanent i.v. infusion of isosorbitol dinitrate (50 μg/kg of body weight/hour).

normotensive Wistar rats = experiment: Telemetric measurements of blood pressure and heart rate over 24 hours in normotensive Wistar rats; assay type: in vivo, rat; conditions: 30, 100 and 300 mg/kg p.o.; telemetry over 24 hours
[7] = "in this dose" (100 mg of substance/1 kg of body weight) i.d.

Structure (SMILES) | blood pressure [1] | heart rate [1] | haemodynamic parameters compared with sildenafil ([2]; 1 mg of substance/1 kg of body weight i.d.) | cardiovascular side effects (reduction in blood pressure with reflex increase in heart rate) ([2]; i.d.) | dose from which effects on the blood pressure and heart rate are measurable ([2]; i.d.) | effect on haemodynamic parameters (blood pressure and heart rate) [3] | stimulation of erection (pressure in the corpus cavernosum rigidum) [4] | blood pressure [5] | changes in blood pressure and heart rate with simultaneous administration of nitrate [6] | blood pressure (normotensive Wistar rats) | heart rate (normotensive Wistar rats) | blood pressure [2, 7] | heart rate [2, 7]
COc1ccc(CNc2nc(C3CCC(C(=O)O)CC3)nc3sc4ccccc4c23)cc1Cl.NCCO (stereo not drawn) [EMD 221829, trans-4-[4-(3-chloro-4-methoxybenzylamino)benzo[4,5]-thieno[2,3-d]pyrimidin-2-yl]cyclohexanecarboxylic acid, ethanolamine salt] | no change | no change | clear difference | no cardiovascular side effects | ≥ 100 mg of substance/1 kg of body weight | no effect | stimulates submaximal erection | no change | no changes | no changes | no changes |  | 
CCCc1nn(C)c2c(=O)[nH]c(-c3cc(S(=O)(=O)N4CCN(C)CC4)ccc3OCC)nc12 [sildenafil, reference compound] | dose-dependent drop | increase |  |  |  |  | Corresponding results | significant dose-dependent reduction | significantly increased | significant dose-dependent reduction | increase | reduction | increase
